# Experimental data as given in ChEMBL document CHEMBL1201862, “PubChem BioAssay data set” (2004).
#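 A five-concentration, 48-hour dose response in 96-well plates underlies each endpoint, interpolated linearly between surrounding concentrations. At the GI50, growth is halved.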 Activity calls are given as the source filed them. Rule as the data show it: active = GI50 up to about 1.1 µM and inactive = higher.
# Columns and labels:
# Assay in all cases: DTP human tumour cell line panel, 48 h
# HCT-15 = system: HCT-15
# HOP-92 = system: HOP-92
# COLO 205 = system: COLO 205
# CCRF-CEM = system: CCRF-CEM
# DU-145 = system: DU-145
# SR = system: SR
# TK-10 = system: TK-10
# CAKI-1 = system: CAKI-1
# OVCAR-3 = system: OVCAR-3
# SF-295 = system: SF-295
# SW-620 = system: SW-620
# EKVX = system: EKVX
# MCF7 = system: MCF7
# T47D = system: T47D
# NCI-H522 = system: NCI-H522
# HOP-62 = system: HOP-62
# SK-MEL-28 = system: SK-MEL-28
# UACC-62 = system: UACC-62
# LOX IMVI = system: LOX IMVI
# SN12C = system: SN12C
SMILES,GI50 (HCT-15),GI50 (HOP-92),GI50 (COLO 205),GI50 (CCRF-CEM),GI50 (DU-145),GI50 (SR),GI50 (TK-10),GI50 (CAKI-1),GI50 (OVCAR-3),GI50 (SF-295),GI50 (SW-620),GI50 (EKVX),GI50 (MCF7),GI50 (T47D),GI50 (NCI-H522),GI50 (HOP-62),GI50 (SK-MEL-28),GI50 (UACC-62),GI50 (LOX IMVI),GI50 (SN12C)
CC[C@@]1(O)C(=O)OCc2c1cc1n(c2=O)Cc2c-1nc1ccccc1c2/C=N\NC(=O)C(C)N (some centres undefined),4.29 µM,0.179 µM (active),7.11 µM (inactive),< 0.01 µM (active),0.0401 µM (active),< 0.01 µM (active),> 29.3 µM (inactive),0.071 µM (active),7.06 µM (inactive),< 0.0371 µM (active),1.37 µM (inactive),11.9 µM (inactive),< 0.022 µM (active),< 0.0157 µM (active),0.432 µM (active),< 0.0266 µM (active),17.8 µM (inactive),< 0.01 µM (active),0.0254 µM (active),< 0.01 µM (active)
Nc1nc(N)c(N=O)c(Nc2ccc(O)cc2)n1,> 57.3 µM,20.8 µM (inactive),57.5 µM (inactive),14.9 µM (inactive),34.6 µM (inactive),14.8 µM (inactive),> 63 µM (inactive),> 45.4 µM (inactive),47.2 µM (inactive),> 44.7 µM (inactive),> 60.5 µM (inactive),> 69.8 µM (inactive),5.97 µM (inactive),14.9 µM (inactive),15.9 µM (inactive),37.5 µM (inactive),11.5 µM (inactive),41 µM (inactive),30.3 µM (inactive),31.1 µM (inactive)
O=[N+]([O-])c1cc(Cl)cc2cc(Br)cnc12,> 31.6 µM,5.46 µM (inactive),> 31.6 µM (inactive),> 31.6 µM (inactive),> 31.6 µM (inactive),> 31.6 µM (inactive),27.7 µM (inactive),> 10 µM (inactive),> 31.6 µM (inactive),21.9 µM (inactive),–,> 31.6 µM (inactive),> 31.6 µM (inactive),> 31.6 µM (inactive),29.6 µM (inactive),> 31.6 µM (inactive),> 31.6 µM (inactive),23.2 µM (inactive),> 31.6 µM (inactive),> 31.6 µM (inactive)
Cc1nn(C(=O)c2ccc(Cl)cc2)c2c1C(c1ccccc1O)SC(=N)N2 (centres undefined),> 10 µM,> 10 µM (inactive),> 10 µM (inactive),> 10 µM (inactive),> 10 µM (inactive),> 10 µM (inactive),> 10 µM (inactive),> 10 µM (inactive),> 10 µM (inactive),> 10 µM (inactive),> 10 µM (inactive),> 10 µM (inactive),> 10 µM (inactive),> 10 µM (inactive),> 10 µM (inactive),> 10 µM (inactive),> 10 µM (inactive),> 10 µM (inactive),> 10 µM (inactive),> 10 µM (inactive)
Cc1nn(C(=O)c2ccncc2)c2c1C(c1cccc([N+](=O)[O-])c1)SC(=N)N2 (centres undefined),> 10 µM,> 10 µM (inactive),> 10 µM (inactive),> 10 µM (inactive),> 10 µM (inactive),> 10 µM (inactive),> 10 µM (inactive),> 10 µM (inactive),> 10 µM (inactive),> 10 µM (inactive),> 10 µM (inactive),> 10 µM (inactive),> 10 µM (inactive),> 10 µM (inactive),> 10 µM (inactive),> 10 µM (inactive),> 10 µM (inactive),> 10 µM (inactive),> 10 µM (inactive),> 10 µM (inactive)
O=[N+]([O-])c1ccc(/C=C\c2ccc3c(c2)OCO3)c([N+](=O)[O-])c1,14.6 µM,21.2 µM (inactive),18.4 µM (inactive),18.2 µM (inactive),18.3 µM (inactive),8 µM (inactive),17.3 µM (inactive),25 µM (inactive),18.2 µM (inactive),23 µM (inactive),17.1 µM (inactive),13 µM (inactive),1.86 µM (inactive),44.1 µM (inactive),12.7 µM (inactive),25.1 µM (inactive),17.1 µM (inactive),18.7 µM (inactive),13.4 µM (inactive),17.5 µM (inactive)
COc1cc2cc3c4cc(OC)c(OC)cc4cc[n+]3c(C)c2cc1OC.O=C([O-])CS(=O)(=O)O,> 100 µM,> 100 µM (inactive),57 µM (inactive),33.2 µM (inactive),28.4 µM (inactive),> 100 µM (inactive),> 100 µM (inactive),> 100 µM (inactive),78.9 µM (inactive),> 100 µM (inactive),72.8 µM (inactive),> 100 µM (inactive),72.8 µM (inactive),26.8 µM (inactive),4.88 µM (inactive),42.8 µM (inactive),73.3 µM (inactive),65.9 µM (inactive),> 100 µM (inactive),3.27 µM (inactive)
